# Measurements: ChEMBL document CHEMBL3621197, “Design, synthesis, and preliminary bioactivity studies of substituted purine hydroxamic acid derivatives as novel histone deacetylase (HDAC) inhibitors” (Medchemcomm, 2014)
# Assays:
# [1] = biological target: T1, Histone deacetylase (HDAC1 and HDAC2) (Homo sapiens, UniProt Q13547+Q92769); assay: Inhibition of HDAC1/HDAC2 isolated from human HeLa cells incubated for 30 mins by Color de Lys assay; type: cell-based
# [2] = tested on: MCF7; assay: cells; type: functional, cell-based; conditions: Homo sapiens, MCF7, 48 h
# Description: Cytotoxicity against human MCF7 cells assessed as inhibition of cell proliferation after 48 hrs by MTT assay
# [3] = tested on: MDA-MB-231; assay: cells; type: functional, cell-based; conditions: Homo sapiens, MDA-MB-231, 48 h
# Description: Cytotoxicity against human MDA-MB-231 cells assessed as inhibition of cell proliferation after 48 hrs by MTT assay
# [4] = cells; type: functional, cell-based; conditions: Homo sapiens, KG-1, 48 h
# Description: Cytotoxicity against human KG1 cells assessed as inhibition of cell proliferation after 48 hrs by MTT assay
# [5] = biological target: T1, Histone deacetylase (HDAC1 and HDAC2); conditions: HeLa, at 5 µM
# Description: Inhibition of HDAC1/HDAC2 isolated from human HeLa cells at 5 umol/L incubated for 30 mins by Color de Lys assay
# [6] = tested on: A549; assay: cells; type: functional, cell-based; conditions: Homo sapiens, A549, 48 h
# Description: Cytotoxicity against human A549 cells assessed as inhibition of cell proliferation after 48 hrs by MTT assay
# [7] = biological target: T2, Protein deacetylase HDAC6 (Homo sapiens, UniProt Q9UBN7); assay: Inhibition of recombinant full length human HDAC6 expressed in Baculovirus infected insect Sf9 cells incubated for 30 mins measured by fluorescence assay
# T2 sequence (Q9UBN7 whole entry): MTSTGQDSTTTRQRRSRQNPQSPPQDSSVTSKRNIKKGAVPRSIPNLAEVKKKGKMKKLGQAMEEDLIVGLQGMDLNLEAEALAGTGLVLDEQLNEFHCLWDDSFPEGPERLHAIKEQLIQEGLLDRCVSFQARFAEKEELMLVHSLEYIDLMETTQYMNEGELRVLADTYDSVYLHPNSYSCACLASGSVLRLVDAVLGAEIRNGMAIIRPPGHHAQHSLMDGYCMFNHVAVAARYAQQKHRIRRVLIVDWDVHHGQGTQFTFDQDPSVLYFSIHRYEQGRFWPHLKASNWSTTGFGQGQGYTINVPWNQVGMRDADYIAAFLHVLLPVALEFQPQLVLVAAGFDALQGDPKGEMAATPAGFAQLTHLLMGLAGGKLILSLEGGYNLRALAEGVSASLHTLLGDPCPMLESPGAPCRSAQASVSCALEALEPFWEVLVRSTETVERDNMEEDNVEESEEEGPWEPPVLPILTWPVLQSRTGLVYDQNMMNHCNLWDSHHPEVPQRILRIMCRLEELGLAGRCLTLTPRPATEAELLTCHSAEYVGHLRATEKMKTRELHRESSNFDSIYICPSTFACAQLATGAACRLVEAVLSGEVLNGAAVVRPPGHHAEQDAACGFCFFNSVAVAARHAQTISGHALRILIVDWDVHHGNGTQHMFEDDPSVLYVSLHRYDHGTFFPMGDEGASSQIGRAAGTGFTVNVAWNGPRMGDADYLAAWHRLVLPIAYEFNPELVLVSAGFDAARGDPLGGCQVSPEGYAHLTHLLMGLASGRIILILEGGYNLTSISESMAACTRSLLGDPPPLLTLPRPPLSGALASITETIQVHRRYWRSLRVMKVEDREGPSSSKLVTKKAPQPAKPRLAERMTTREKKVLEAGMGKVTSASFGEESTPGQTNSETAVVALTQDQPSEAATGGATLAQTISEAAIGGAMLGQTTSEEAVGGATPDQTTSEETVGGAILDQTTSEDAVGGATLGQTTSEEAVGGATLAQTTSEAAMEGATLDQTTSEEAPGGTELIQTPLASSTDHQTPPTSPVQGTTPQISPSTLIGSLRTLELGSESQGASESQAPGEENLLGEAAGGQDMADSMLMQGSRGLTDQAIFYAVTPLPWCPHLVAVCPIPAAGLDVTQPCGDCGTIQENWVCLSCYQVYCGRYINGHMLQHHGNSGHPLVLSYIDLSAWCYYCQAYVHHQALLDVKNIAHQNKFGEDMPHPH
# [8] = biological target: T3, Histone deacetylase 8 (Homo sapiens, UniProt Q9BY41); assay: Inhibition of recombinant full length human HDAC8 expressed in Baculovirus infected insect Sf9 cells preincubated for 30 mins followed by substrate addition measured after 15 to 45 mins by luminescence assay
# T3 sequence (Q9BY41 whole entry): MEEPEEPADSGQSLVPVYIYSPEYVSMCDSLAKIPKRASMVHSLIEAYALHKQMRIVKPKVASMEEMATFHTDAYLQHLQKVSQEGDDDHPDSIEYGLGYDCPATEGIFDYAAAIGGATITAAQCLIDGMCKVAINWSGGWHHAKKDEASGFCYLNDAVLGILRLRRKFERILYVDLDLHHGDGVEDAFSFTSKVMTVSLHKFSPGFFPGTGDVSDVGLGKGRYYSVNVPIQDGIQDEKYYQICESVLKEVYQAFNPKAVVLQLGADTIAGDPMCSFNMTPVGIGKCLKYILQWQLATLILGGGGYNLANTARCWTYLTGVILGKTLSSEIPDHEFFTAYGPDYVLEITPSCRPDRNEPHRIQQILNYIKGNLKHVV
# [9] = cells; type: functional, cell-based, ES2; conditions: Homo sapiens, ES-2, 48 h
# Description: Cytotoxicity against human ES2 cells assessed as inhibition of cell proliferation after 48 hrs by MTT assay
# [10] = tested on: U-937; assay: cells; type: functional, cell-based; conditions: Homo sapiens, U-937, 48 h
# Description: Cytotoxicity against human U937 cells assessed as inhibition of cell proliferation after 48 hrs by MTT assay
# [11] = tested on: HeLa; assay: cells; type: functional, cell-based; conditions: Homo sapiens, 48 h
# Description: Cytotoxicity against human HeLa cells assessed as inhibition of cell proliferation after 48 hrs by MTT assay
# [12] = tested on: PC-3; assay: cells; type: functional, cell-based; conditions: Homo sapiens, PC-3, 48 h
# Description: Cytotoxicity against human PC3 cells assessed as inhibition of cell proliferation after 48 hrs by MTT assay
# [13] = biological target: Histone deacetylase 1 (Homo sapiens, UniProt Q13547); assay: Inhibition of recombinant full length human HDAC1 (1 to 482 amino acids) expressed in Baculovirus infected insect Sf9 cells incubated for 30 mins measured by fluorescence assay
# Chain of Histone deacetylase 1 (Q13547 whole entry, the tested form may be a part): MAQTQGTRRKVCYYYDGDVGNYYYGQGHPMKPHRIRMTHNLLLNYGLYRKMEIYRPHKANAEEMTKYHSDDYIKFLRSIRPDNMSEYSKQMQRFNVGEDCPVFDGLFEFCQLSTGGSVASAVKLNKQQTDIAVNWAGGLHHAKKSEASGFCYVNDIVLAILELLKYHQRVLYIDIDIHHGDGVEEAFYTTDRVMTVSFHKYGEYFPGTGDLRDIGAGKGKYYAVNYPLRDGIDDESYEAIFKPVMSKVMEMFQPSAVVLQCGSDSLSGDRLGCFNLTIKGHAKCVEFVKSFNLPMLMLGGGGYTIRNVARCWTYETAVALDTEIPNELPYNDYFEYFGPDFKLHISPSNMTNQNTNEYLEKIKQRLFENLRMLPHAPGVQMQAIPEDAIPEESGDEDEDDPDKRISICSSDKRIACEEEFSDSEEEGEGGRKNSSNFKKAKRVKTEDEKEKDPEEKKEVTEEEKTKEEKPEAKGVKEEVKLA
# T1 sequence (Q13547 whole entry, looked up): as the sequence (Q13547 whole entry, the tested form may be a part) above
# T1 sequence (Q92769 whole entry, looked up): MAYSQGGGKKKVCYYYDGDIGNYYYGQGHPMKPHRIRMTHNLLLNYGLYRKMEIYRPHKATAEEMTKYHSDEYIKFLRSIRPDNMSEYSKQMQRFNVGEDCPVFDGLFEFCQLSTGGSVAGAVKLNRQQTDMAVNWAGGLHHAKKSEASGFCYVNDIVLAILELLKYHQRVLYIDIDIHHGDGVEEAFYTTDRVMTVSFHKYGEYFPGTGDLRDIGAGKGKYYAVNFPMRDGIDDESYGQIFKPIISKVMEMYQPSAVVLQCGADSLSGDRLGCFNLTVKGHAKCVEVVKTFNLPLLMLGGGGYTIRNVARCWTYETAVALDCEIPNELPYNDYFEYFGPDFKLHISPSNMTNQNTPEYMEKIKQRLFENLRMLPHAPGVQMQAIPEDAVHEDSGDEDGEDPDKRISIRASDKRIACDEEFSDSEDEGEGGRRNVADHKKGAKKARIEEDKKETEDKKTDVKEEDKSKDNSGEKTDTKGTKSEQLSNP
Compound,IC50 [1],IC50 [2],IC50 [3],IC50 [4],inhibition [5],other results
O=C(CCCCCCNC(=O)Cn1cnc2c(Nc3ccccc3)ncnc21)NO,2.94 µM,> 50 µM,8.91 µM,> 50 µM,49%,–
CNc1ncnc2c1ncn2CC(=O)NCC(=O)NO,–,–,–,–,3%,–
O=C(CCCCCNC(=O)Cn1cnc2c(N3CCOCC3)nc(Nc3ccccc3)nc21)NO,0.075 µM,18.6 µM,1.56 µM,5.37 µM,98%,IC50 [6]: 46.1 µM; IC50 [7]: 0.0026 µM; IC50 [8]: 0.15 µM; IC50 [9]: 28 µM; IC50 [10]: 6.5 µM; IC50 [11]: 18.2 µM; IC50 [12]: 6.44 µM; IC50 [13]: 0.035 µM
O=C(CNC(=O)Cn1cnc2c(NCc3ccccc3)ncnc21)NO,–,–,–,–,3%,–
Nc1nc(N2CCOCC2)c2ncn(CC(=O)NCCCCCC(=O)NO)c2n1,4.53 µM,> 50 µM,41.3 µM,–,53%,–
O=C(CCCCCNC(=O)Cn1cnc2c(Nc3ccccc3)nc(Nc3ccccc3)nc21)NO,0.3 µM,9.58 µM,1.61 µM,3.8 µM,80%,IC50 [6]: 18 µM; IC50 [7]: 0.0038 µM; IC50 [8]: 0.2 µM; IC50 [9]: 13.4 µM; IC50 [10]: 4.07 µM; IC50 [11]: 9.08 µM; IC50 [12]: 2.14 µM; IC50 [13]: 0.028 µM
O=C(CCNC(=O)Cn1cnc2c(NCc3ccccc3)ncnc21)NO,–,–,–,–,13%,–
O=C(Cc1ccc(NC(=O)Cn2cnc3c(N4CCOCC4)ncnc32)cc1)NO,–,–,–,–,25%,–
O=C(CCCCCNC(=O)Cn1cnc2c(NCc3ccccc3)ncnc21)NO,2.05 µM,> 50 µM,34.2 µM,> 50 µM,70%,–
O=C(CCCNC(=O)Cn1cnc2c(NCc3ccccc3)ncnc21)NO,–,–,–,–,11%,–
CNc1ncnc2c1ncn2CC(=O)NCCC(=O)NO,–,–,–,–,10%,–
O=C(CCCCNC(=O)Cn1cnc2c(Nc3ccccc3)nc(Nc3ccccc3)nc21)NO,0.59 µM,> 50 µM,11.1 µM,34.7 µM,87%,–
O=C(CCNC(=O)Cn1cnc2c(N3CCOCC3)nc(Nc3ccccc3)nc21)NO,> 5 µM,–,–,–,56%,–
O=C(CCCNC(=O)Cn1cnc2c(N3CCOCC3)nc(Nc3ccccc3)nc21)NO,> 5 µM,–,–,–,69%,–
O=C(CCNC(=O)Cn1cnc2c(N3CCOCC3)ncnc21)NO,–,–,–,–,3%,–
O=C(CCCCCNC(=O)Cn1cnc2c(N3CCOCC3)ncnc21)NO,> 5 µM,–,–,–,49%,–
Nc1nc(N2CCOCC2)c2ncn(CC(=O)NCCC(=O)NO)c2n1,–,–,–,–,20%,–
O=C(CCCCCNC(=O)Cn1cnc2c(Nc3ccccc3)ncnc21)NO,2.09 µM,> 50 µM,22.3 µM,> 50 µM,72%,–
O=C(CCCCNC(=O)Cn1cnc2c(Nc3ccccc3)ncnc21)NO,2.51 µM,> 50 µM,> 50 µM,> 50 µM,59%,–
O=C(CCCNC(=O)Cn1cnc2c(N3CCOCC3)ncnc21)NO,–,–,–,–,15%,–
Nc1nc(N2CCOCC2)c2ncn(CC(=O)NCCCC(=O)NO)c2n1,–,–,–,–,-1%,–
Nc1nc(N2CCOCC2)c2ncn(CC(=O)Nc3ccc(CC(=O)NO)cc3)c2n1,–,–,–,–,0%,–
O=C(CCCCCCNC(=O)Cn1cnc2c(Nc3ccccc3)nc(Nc3ccccc3)nc21)NO,0.51 µM,9.04 µM,1.55 µM,2.88 µM,95%,IC50 [6]: 10.1 µM; IC50 [7]: 0.0018 µM; IC50 [8]: 0.32 µM; IC50 [9]: 8.95 µM; IC50 [10]: 3.91 µM; IC50 [11]: 8.76 µM; IC50 [12]: 4.26 µM; IC50 [13]: 0.063 µM
CNc1ncnc2c1ncn2CC(=O)NCCCC(=O)NO,–,–,–,–,6%,–
